Test results taken from patent US20170340689A1, “TITRATED EXTRACTS OF CYNARA SCOLYMUS FOR USE IN THE TREATMENT OF MESOTHELIOMA” (ABOCA S.P.A SOCIETÀ AGRICOLA, priority 2014, published 2017).

System: untransformed HMC cells
Test: ATPlite cell vitality assay in co-treatment with pemetrexed, untransformed cells
Type: cell-based, human
Details: extract at non-cytotoxic dose 6 μg/ml
From the text: 4.1 Association of Extract of Cynara Spp. and Pemetrexed with ATPlite™ Assay

Nc1nc2[nH]cc(CCc3ccc(C(=O)N[C@@H](CCC(=O)O)C(=O)O)cc3)c2c(=O)[nH]1 [PMTX, pemetrexed]
cell vitality of untransformed HMC cells, pemetrexed alone or with extract: highly toxic for the non-tumour cells
